Reference: ChEMBL document CHEMBL1147127, “Halogenated cyclic peptides isolated from the sponge Corticium sp” (J Nat Prod, 2007)

Tested on: HCT-116
Test: Cytotoxicity against HCT116 cells
Type: cell-based
Settings: human; call rule not given here

## Cn1c(C(=O)NCC(=O)N[C@H]2CNC(=O)[C@@H](Cc3c[nH]c4ccc(Br)cc34)NC(=O)[C@@H](O)CNC(=O)[C@@H](CC(N)=O)NC2=O)cc(Cl)c1Cl [CYCLOCINAMIDE B]
  Activity: Not Active
